System: corn (Zea mays)
Test: Test A pre-/postemergence plant response
Assay type: in vivo
Settings: for Corn plant response rating (crop injury, 0 = no effect, 100 = complete kill) at 125 g/ha / Corn plant response rating (crop injury, 0 = no effect, 100 = complete kill) at 500 g/ha / Corn plant response rating (crop injury, 0 = no effect, 100 = complete kill) at 31 g/ha: Zea mays, 240 h
In short: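 Seeds sown in loam–sand blend; test chemicals in non-phytotoxic solvent with surfactant applied preemergence as directed soil spray and, concurrently, postemergence to plants 2–10 cm tall at one- to two-leaf stage. Greenhouse ~10 days, then visual injury rating vs untreated controls on 0–100 scale (0 = no effect, 100 = complete control).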

[1] = Postemergence, 125 g ai/ha, 0 to 100 scale, 0 no effect, 100 complete control
[2] = Postemergence, 500 g ai/ha, 0 to 100 scale, 0 no effect, 100 complete control
[3] = Preemergence, 125 g ai/ha, 0 to 100 scale (0 no effect, 100 complete control)
[4] = Preemergence, 500 g ai/ha, 0 to 100 scale (0 no effect, 100 complete control)
[5] = Postemergence, 31 g ai/ha, 0 to 100 scale, 0 no effect, 100 complete control
[6] = Preemergence, 31 g ai/ha, 0 to 100 scale, 0 is no effect, 100 is complete control
[7] = post-emergence, Postemergence, 125 g ai/ha, 0 to 100 scale, 0 no effect, 100 complete control
[8] = pre-emergence, Preemergence, 125 g ai/ha, 0 to 100 scale (0 no effect, 100 complete control)
[9] = post-emergence, Postemergence, 31 g ai/ha, 0 to 100 scale (0 no effect, 100 complete control)
[10] = pre-emergence, Preemergence, 31 g ai/ha, 0 to 100 scale, 0 is no effect, 100 is complete control

| Compound | Plant response rating, Corn [1] | Plant response rating, Corn [3] | Plant response rating, Corn [5] | Plant response rating, Corn [6] | further results |
| --- | --- | --- | --- | --- | --- |
| 5-[3-(4-chlorophenyl)-5-methyl-1H-pyrazol-1-yl]-1,6-dihydro-1-methyl-6-oxo-4-pyridazinyl-1-methylethyl carbonate [Compound 7] | 50 | 60 | – | – | Plant response rating, Corn [2]: 100; Plant response rating, Corn [4]: 90 |
| Cc1cc(-c2ccc(Br)cc2)nn1-c1c(OC(=O)C2CC2)cnn(C)c1=O [Compound 5] | 100 | 80 | – | – | Plant response rating, Corn [2]: 100; Plant response rating, Corn [4]: 90 |
| CCc1cc(-c2ccc(C(F)(F)F)cc2)nn1-c1c(OC(=O)OC(C)C)cnn(C)c1=O [Compound 12] | 90 | 80 | – | – | Plant response rating, Corn [2]: 90; Plant response rating, Corn [4]: 90 |
| CCc1cc(-c2ccc(C(F)(F)F)cc2)nn1-c1c(O)c(C)nn(C)c1=O [Compound 16] | 90 | 70 | – | – | Plant response rating, Corn [2]: 100; Plant response rating, Corn [4]: 90 |
| Cc1cc(-c2ccc(C(F)(F)F)cc2)nn1-c1c(O)c(C(C)C)nn(C)c1=O [Compound 27] | 50 | 20 | – | – | Plant response rating, Corn [2]: 80; Plant response rating, Corn [4]: 80 |
| Cc1cc(-c2ccc(Cl)cc2)nn1-c1c(OC(=O)c2ccccc2Cl)cnn(C)c1=O [Compound 38] | 90 | 70 | 20 | 0 | – |
| Cn1ncc(O)c(-n2nc(-c3ccc(Cl)cc3)cc2C2CC2)c1=O [Compound 45] | 80 | 60 | 40 | 0 | – |
| Cc1ccc(-c2ccc(Cl)cc2)cc1-c1c(O)cnn(C)c1=O [Compound 46] | 50 | 0 | 20 | 0 | – |
| Cc1cc(-c2ccc(Cl)cc2)nn1-c1c(OS(=O)(=O)C(C)C)cnn(C)c1=O [Compound 50] | 30 | 20 | 0 | 0 | – |
| CCCC(=O)Oc1cnn(C)c(=O)c1-n1nc(-c2ccc(Cl)cc2)cc1C [Compound 56] | 100 | 80 | 90 | 40 | – |
| Cc1nn(C)c(=O)c(-n2nc(-c3ccc(Cl)cc3)cc2Cl)c1O [Compound 59] | 70 | 60 | 30 | 0 | – |
| CCc1cc(-c2ccc(C(F)(F)F)cc2)nn1-c1c(O)c(OC)nn(C)c1=O [Compound 66] | 100 | 80 | 100 | 40 | – |
| CCCc1cc(-c2ccc(C(F)(F)F)cc2)nn1-c1c(O)cnn(C)c1=O [Compound 72] | 100 | 50 | 80 | 20 | – |
| CCc1cc(-c2ccc(Br)cc2)nn1-c1c(O)cnn(CC(F)(F)F)c1=O [Compound 73] | 100 | 20 | 90 | 0 | – |
| CCc1cc(-c2ccc(Br)cc2)nn1-c1c(O)c(C)nn(C)c1=O [Compound 74] | 100 | 60 | 60 | – | – |
| CCCc1cc(-c2ccc(Cl)cc2)nn1-c1c(O)cnn(C)c1=O [Compound 76] | 100 | 50 | 20 | 0 | – |
| Cc1cc(-c2ccc(Br)cc2)nn1-c1c(O)cnn(C2CCCCO2)c1=O (stereo not drawn) [Compound 77, 4-[3-(4-bromophenyl)-5-methyl-1H-pyrazol-1-yl]-5-hydroxy-2-(tetrahydro-2H-pyran-2-yl)-3(2H)-pyridazinone] | – | – | – | – | Corn plant response rating (crop injury, 0 = no effect, 100 = complete kill) at 125 g/ha [7]: 80%; Corn plant response rating (crop injury, 0 = no effect, 100 = complete kill) at 500 g/ha (post-emergence, Postemergence, 500 g ai/ha, 0 to 100 scale, 0 no effect, 100 complete control): 100%; Corn plant response rating (crop injury, 0 = no effect, 100 = complete kill) at 125 g/ha [8]: 30%; Corn plant response rating (crop injury, 0 = no effect, 100 = complete kill) at 500 g/ha (pre-emergence, Preemergence, 500 g ai/ha, 0 to 100 scale (0 no effect, 100 complete control)): 80% |
| Cc1nn(C)c(=O)c(-c2nc(-c3ccc(Cl)cc3)sc2C)c1O [Compound 79, 4-[2-(4-chlorophenyl)-5-methyl-4-thiazolyl]-5-hydroxy-2,6-dimethyl-3(2H)-pyridazinone] | – | – | – | – | Corn plant response rating (crop injury, 0 = no effect, 100 = complete kill) at 31 g/ha [9]: 0%; Corn plant response rating (crop injury, 0 = no effect, 100 = complete kill) at 125 g/ha [7]: 30%; Corn plant response rating (crop injury, 0 = no effect, 100 = complete kill) at 31 g/ha [10]: 0%; Corn plant response rating (crop injury, 0 = no effect, 100 = complete kill) at 125 g/ha [8]: 20% |
| COc1nn(C)c(=O)c(-n2nc(-c3ccc(Br)cc3)cc2C)c1O [Compound 82] | 100 | 50 | 80 | 40 | – |
| CCc1c(C)c(-c2ccc(Br)cc2)nn1-c1c(O)cnn(C)c1=O [Compound 83] | 100 | 40 | 0 | 0 | – |
| Cc1cn(-c2ccc(C(F)(F)F)cc2)nc1-c1c(O)cnn(C)c1=O [Compound 85, 5-hydroxy-2-methyl-4-[4-methyl-1-[4-(trifluoromethyl)phenyl]-1H-pyrazol-3-yl]-3(2H)-pyridazinone] | – | – | – | – | Corn plant response rating (crop injury, 0 = no effect, 100 = complete kill) at 31 g/ha [9]: 0%; Corn plant response rating (crop injury, 0 = no effect, 100 = complete kill) at 125 g/ha [7]: 0%; Corn plant response rating (crop injury, 0 = no effect, 100 = complete kill) at 31 g/ha [10]: 0%; Corn plant response rating (crop injury, 0 = no effect, 100 = complete kill) at 125 g/ha [8]: 0% |
| Cn1ncc(O)c(-c2nn(-c3ccc(C(F)(F)F)cc3)cc2Br)c1=O [Compound 87, 4-[4-bromo-1-[4-(trifluoromethyl)phenyl]-1H-pyrazol-3-yl]-5-hydroxy-2-methyl-3(2H)-pyridazinone] | – | – | – | – | Corn plant response rating (crop injury, 0 = no effect, 100 = complete kill) at 31 g/ha [9]: 0%; Corn plant response rating (crop injury, 0 = no effect, 100 = complete kill) at 125 g/ha [7]: 40%; Corn plant response rating (crop injury, 0 = no effect, 100 = complete kill) at 31 g/ha [10]: 0%; Corn plant response rating (crop injury, 0 = no effect, 100 = complete kill) at 125 g/ha [8]: 20% |

Source: patent US20100267561A1, “HERBICIDAL PYRIDAZINONE DERIVATIVES” (priority 2007, published 2010)
